Experimental data published in patent publication US11149008B2, “Sulfamide derivatives and preparation method and use thereof” (HitGen Ltd., priority 2015, dated 2021).

What was measured:
HepG2 cells = assay: Cell growth inhibition measurement (CCK-8), HepG2; type: cell-based; conditions: Homo sapiens, HepG2, 72 h, highest EC50 measured during one or multiple operations, read-out: Inhibition activity against cancer cells, HepG2 (EC50)
Excerpt: (§1) A HepG2 cell strain and an HCT-116 cell strain were purchased from Shanghai Institutes for Biological Sciences; a DMEM high-sugar culture medium and an MEM culture medium were purchased from Hyclone; fetal calf serum was purchased from Gibco; trypsin was purchased from Invitrogen Shanghai; a CCK-8 kit was purchased from Beyotime Institute of Biotechnology; and, the remaining cell culture mediums and other consumables were purchased from Corning China.
(§2) HepG2 cells and HCT-116 cells in the logarithmic growth phase were digested by trypsin. After the counting of uniform cell suspension, the cell density was adjusted as 1500 cells/well by a culture medium containing 10% serum. The cells were re-inoculated to a 96-well cell culture plate, and cultured to a volume of 200 μL at 37° C. in an incubator containing 5% CO2. The cells could be tested after being cultured for 24 h.
(§3) The cells cultured for 24 h were taken out from the incubator. The culture liquid in the well plate was sucked out, and 200 μL of compound solution prepared in the culture medium containing 10% fetal calf serum was added in each well. Five parallel mediums were provided for each concentration, and a DMSO culture medium was used as negative control. The culture mediums were cultured for 72 h at 37° C. in an incubator containing 5% CO2, and CCK-8 detection was performed.
(§4) A serum-free culture medium and CCK-8 solution were prepared, and CCK-8 working solution was prepared at a ratio of 10:1 (this process should be performed in dark place).
(§5) The cells cultured for 72 h were taken out from the incubator. The culture liquid in the well plate was sucked out, and 120 μL of the CCK-8 working solution was added in each well. A well plate without cells was also added with 120 μL of the CCK-8 working solution to serve as blank control. The well plates were cultured for 1 h at 37° C. in an incubator containing 5% CO2 (this process should be performed in dark place).
(§6) The well plates were taken out from the incubator, 100 μL of solution in each well was sucked out and added in a new 96-well plate, and the absorbance was measured at 450 nm (this process should be performed in dark place).
(§7) where Tx is the absorbance of the CCK-8 after the compound acts for 72 h;
(§8) C is the absorbance of the CCK-8 after the negative control wells are cultured for 72 h; and
(§9) B is the absorbance of the CCK-8 in the blank control wells.
(§10) The test results of the compounds prepared according to the embodiments during the measurement are shown in Table 3, wherein the measured highest EC50 of the compounds during one operation or multiple operations is classified according to the following description: […]

HDAC 6 = biological target: T1, HDAC 6 (Homo sapiens, UniProt Q9UBN7); assay: Enzyme activity detection of histone deacetylase 6 (fluorogenic substrate deacetylation); type: biochemical; conditions: 0.35 ng/μL HDAC 6, 20 μM substrate, 30 min at 37° C.; IC50 class
T1 construct: purchased BPS Bioscience #50076
T1 sequence (Q9UBN7 1-1215): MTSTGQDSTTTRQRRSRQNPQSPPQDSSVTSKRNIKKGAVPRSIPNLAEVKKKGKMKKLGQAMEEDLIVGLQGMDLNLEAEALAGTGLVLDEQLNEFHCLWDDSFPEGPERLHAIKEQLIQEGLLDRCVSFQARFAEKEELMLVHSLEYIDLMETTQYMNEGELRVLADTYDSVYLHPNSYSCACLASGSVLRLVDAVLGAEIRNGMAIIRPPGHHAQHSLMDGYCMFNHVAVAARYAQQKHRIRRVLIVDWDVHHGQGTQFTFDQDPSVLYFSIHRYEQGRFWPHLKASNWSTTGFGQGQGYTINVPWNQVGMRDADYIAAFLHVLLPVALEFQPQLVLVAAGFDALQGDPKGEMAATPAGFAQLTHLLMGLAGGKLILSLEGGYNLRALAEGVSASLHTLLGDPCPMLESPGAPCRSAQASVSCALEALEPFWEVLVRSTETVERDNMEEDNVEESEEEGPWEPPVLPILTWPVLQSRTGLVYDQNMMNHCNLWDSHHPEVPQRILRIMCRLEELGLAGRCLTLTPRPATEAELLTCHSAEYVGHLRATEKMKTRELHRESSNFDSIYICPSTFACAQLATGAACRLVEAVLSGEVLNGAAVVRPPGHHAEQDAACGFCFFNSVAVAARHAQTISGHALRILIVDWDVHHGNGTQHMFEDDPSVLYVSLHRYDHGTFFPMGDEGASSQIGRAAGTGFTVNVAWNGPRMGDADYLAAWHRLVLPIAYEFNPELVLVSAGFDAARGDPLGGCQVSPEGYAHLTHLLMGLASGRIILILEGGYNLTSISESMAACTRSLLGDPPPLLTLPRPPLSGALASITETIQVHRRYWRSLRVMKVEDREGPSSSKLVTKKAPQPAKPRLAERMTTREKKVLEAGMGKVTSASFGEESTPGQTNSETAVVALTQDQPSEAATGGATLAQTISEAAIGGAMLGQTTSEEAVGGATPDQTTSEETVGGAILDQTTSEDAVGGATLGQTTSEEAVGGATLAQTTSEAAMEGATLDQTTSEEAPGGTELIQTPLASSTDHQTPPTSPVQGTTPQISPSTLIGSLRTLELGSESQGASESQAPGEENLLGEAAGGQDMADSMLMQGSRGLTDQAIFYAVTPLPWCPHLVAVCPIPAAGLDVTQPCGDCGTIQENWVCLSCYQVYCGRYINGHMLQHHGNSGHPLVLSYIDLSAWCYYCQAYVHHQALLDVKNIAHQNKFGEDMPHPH
Excerpt: (§11) During the deacetylation detection of a substrate, the HDAC inhibition activity of the compound of the present invention was detected.
A: Enzyme Activity Detection of Histone Deacetylase 6 (#50076, BPS Bioscience)
(§12) Acetyl on the substrate was removed by the HDAC 6, so that the substrate was activated, and the developing liquid added subsequently could act on the substrate to release the fluorescent group. The size of the fluorescence signal reflected the activity of the HDAC 6. The IC50 detection method for this enzyme was disclosed in Chuping Xu, Elisabetta Soragni Improved Histone Deacetylase Inhibitors as Therapeutics for the Neurdegenerative Disease Friedreich's Ataxia: A New Synthetic Route. The total reaction system (100 μL/well) contained 0.35 ng/μL of HDAC 6, 20 μM of the substrate and the compound in different concentrations. The reaction system was incubated for 30 min at 37° C., and the fluorescence signal was then measured. The inhibition effect of the compound was determined from the obtained data, a concentration response curve was obtained by using the inhibition effect and the concentration of the compound, and the value of IC50 was fitted according to a four-parameter model.
(§13) The activities of the compounds prepared in the embodiments against the histone deacetylases 1, 3 and 6 (i.e., HDAC 1, HDAC 3 and HDAC 6) were detected by the above methods, and the test results were shown in Table 2, where the measurements of IC50 of the compounds were classified according to the following description: […]

HDAC 3 = biological target: T2, HDAC 3 (Homo sapiens, UniProt O15379); assay: Enzyme activity detection of histone deacetylase 3 (fluorogenic substrate deacetylation); type: biochemical; conditions: 0.16 ng/μL HDAC 3, 10 μM substrate; IC50 class
T2 construct: purchased BPS Bioscience #50003
Excerpt: as §11
B: Enzyme Activity Detection of Histone Deacetylase 3 (#50003, BPS Bioscience)
as §12, with “3,” for “6,”, “3.” for “6.”, “0.16” for “0.35”, “3, 10” for “6, 20”, “The” for “The reaction system was incubated for 30 min at 37° C., and the”, “detected online at Ex/Em=360/460.” for “then measured.”
as §13

HCT-116 cells = assay: Cell growth inhibition measurement (CCK-8), HCT-116; type: cell-based; conditions: Homo sapiens, HCT-116, 72 h, highest EC50 measured during one or multiple operations, read-out: Inhibition activity against cancer cells, HCT-116 (EC50)
Excerpt: as §1, §2, §3, §4, §5, §6, §7, §8, §9, §10

HDAC 1 = HDAC 1 (Homo sapiens, UniProt Q13547); assay: Enzyme activity detection of histone deacetylase 1 (fluorogenic substrate deacetylation); type: biochemical; conditions: 0.28 ng/μL HDAC 1, 10 μM substrate; IC50 class
Excerpt: as §11
C: Enzyme Activity Detection of Histone Deacetylase 1
as §12, with “1,” for “6,”, “1.” for “6.”, “0.28” for “0.35”, “1, 10” for “6, 20”, “The” for “The reaction system was incubated for 30 min at 37° C., and the”, “detected online at Ex/Em=360/460.” for “then measured.”
as §13

T2 sequence (O15379 whole entry): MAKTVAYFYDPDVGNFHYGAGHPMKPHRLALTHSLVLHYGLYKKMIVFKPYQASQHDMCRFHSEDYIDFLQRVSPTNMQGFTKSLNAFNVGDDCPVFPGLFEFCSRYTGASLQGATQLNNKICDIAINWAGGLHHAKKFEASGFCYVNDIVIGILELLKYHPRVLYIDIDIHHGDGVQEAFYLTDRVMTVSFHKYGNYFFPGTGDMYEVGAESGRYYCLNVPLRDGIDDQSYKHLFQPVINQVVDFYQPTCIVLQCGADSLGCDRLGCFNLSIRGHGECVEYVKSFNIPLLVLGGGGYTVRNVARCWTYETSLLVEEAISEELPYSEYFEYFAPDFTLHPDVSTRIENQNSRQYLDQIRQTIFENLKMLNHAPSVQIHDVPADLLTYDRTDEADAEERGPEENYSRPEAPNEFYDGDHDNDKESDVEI
T2 sequence (Q9Y618 395-489 partner limits assumed): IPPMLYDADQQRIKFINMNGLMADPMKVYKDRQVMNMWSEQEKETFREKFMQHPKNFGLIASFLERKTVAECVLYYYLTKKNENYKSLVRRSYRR
Sequence of HDAC 1 (Q13547 whole entry, species assumed): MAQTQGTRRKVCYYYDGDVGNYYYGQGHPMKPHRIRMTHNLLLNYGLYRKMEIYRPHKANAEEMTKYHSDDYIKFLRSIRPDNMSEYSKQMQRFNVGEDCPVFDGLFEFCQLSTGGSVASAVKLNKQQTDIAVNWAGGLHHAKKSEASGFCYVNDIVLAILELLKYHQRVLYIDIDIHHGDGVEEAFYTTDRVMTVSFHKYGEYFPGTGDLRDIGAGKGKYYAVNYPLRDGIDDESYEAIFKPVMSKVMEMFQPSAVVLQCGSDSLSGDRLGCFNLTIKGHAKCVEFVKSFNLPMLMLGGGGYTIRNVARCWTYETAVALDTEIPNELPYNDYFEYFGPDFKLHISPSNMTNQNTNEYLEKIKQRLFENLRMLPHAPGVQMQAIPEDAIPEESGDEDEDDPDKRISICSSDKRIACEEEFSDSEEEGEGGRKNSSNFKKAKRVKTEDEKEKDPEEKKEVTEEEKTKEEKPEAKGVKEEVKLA

| EC50 (HepG2 cells) [µM] | IC50 (HDAC 6) [µM] | IC50 (HDAC 3) [µM] | EC50 (HCT-116 cells) [µM] | IC50 (HDAC 1) [µM] | Structure (SMILES) |
| --- | --- | --- | --- | --- | --- |
| > 0.1 | < 0.1 | 0.1 to 0.5 | – | – | O=C(NO)C1=CCN(S(=O)(=O)c2ccc(-c3cnn(C4CCNCC4)c3)cc2)CC1 [Compound 1, N-hydroxyl-1-((4-(1-(piperidine-4-yl)-1H-pyrazol-4-yl)phenyl)sulfonyl)-1,2,3,6-tetrahydropyridine-4-formamide] |
| < 0.1 | < 0.1 | 0.1 to 0.5 | – | – | O=C(NO)C1=CCN(S(=O)(=O)c2ccc(-c3ccc(O)cc3)cc2)CC1 [Compound 2, N-hydroxyl-1-((4′-hydroxyl-[1,1′-biphenyl]-4-yl)sulfonyl)-1,2,3,6-tetrahydropyridine-4-formamide] |
| < 0.1 | < 0.1 | – | < 0.1 | < 0.1 | O=C(NO)C1=CCN(S(=O)(=O)c2ccc(-c3ccc(CN4CCCCC4)cc3)cc2)CC1 [Compound 19, N-hydroxyl-1-((4′-(piperidine-1-ylmethyl)-[1,1′-biphenyl]-4-yl)sulfonyl)-1,2,3,6-tetrahydropyridine-4-formamide] |
| > 0.1 | < 0.1 | 0.1 to 0.5 | – | 0.1 to 0.5 | CN1CCN(c2ccc(-c3ccc(S(=O)(=O)N4CCC=C(C(=O)NO)CC4)cc3)cc2)CC1 [Compound 44, N-hydroxyl-1-((4′-(4-methylpiperazine-1-yl)-[1,1′-biphenyl]-4-yl)sulfonyl)-2,3,6,7-tetrahydro-1H-aza-4-formamide] |
